Broadly, the Ki is a measure of affinity in units of concentration, obtained from inhibition or displacement. Read a low Ki as a stronger hold on the target.

The target of assay [1] is T1, 5-hydroxytryptamine receptor 1A (Rattus norvegicus, UniProt P19327).
T1 sequence (P19327 whole entry): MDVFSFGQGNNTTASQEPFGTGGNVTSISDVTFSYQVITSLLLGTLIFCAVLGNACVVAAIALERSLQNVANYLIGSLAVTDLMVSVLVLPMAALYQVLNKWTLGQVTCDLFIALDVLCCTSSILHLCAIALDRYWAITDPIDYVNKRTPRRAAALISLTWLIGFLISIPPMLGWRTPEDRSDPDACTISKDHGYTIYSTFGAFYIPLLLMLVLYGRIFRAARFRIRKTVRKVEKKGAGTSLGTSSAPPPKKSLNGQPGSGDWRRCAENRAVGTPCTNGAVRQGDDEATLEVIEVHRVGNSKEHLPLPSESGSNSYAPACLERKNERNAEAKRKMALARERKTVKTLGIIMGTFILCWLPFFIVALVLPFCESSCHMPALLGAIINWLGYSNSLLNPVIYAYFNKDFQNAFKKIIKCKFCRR
Put plainly: Binding affinity against 5-hydroxytryptamine 1A receptor in rat cerebral cortical membrane using [3H]-8-OH-DPAT as radioligand. It is filed as cell membranes.

Assay [2] concerns the target T2, Adrenergic receptor alpha-2 (Rattus norvegicus, UniProt P22086+P19328+P22909).
T2 sequence (P22086 whole entry): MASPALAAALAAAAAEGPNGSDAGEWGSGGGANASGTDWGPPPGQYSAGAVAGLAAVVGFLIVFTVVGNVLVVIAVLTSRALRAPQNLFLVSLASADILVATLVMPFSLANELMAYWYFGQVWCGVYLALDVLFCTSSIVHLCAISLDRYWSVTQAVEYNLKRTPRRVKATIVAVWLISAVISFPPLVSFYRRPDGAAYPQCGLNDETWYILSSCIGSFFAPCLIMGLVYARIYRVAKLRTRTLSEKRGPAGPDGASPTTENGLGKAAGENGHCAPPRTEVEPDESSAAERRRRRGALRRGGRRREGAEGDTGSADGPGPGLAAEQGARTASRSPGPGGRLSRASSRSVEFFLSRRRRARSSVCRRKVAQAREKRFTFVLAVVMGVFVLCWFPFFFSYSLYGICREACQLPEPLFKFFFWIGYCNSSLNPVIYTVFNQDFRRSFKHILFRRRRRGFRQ
T2 sequence (P19328 whole entry): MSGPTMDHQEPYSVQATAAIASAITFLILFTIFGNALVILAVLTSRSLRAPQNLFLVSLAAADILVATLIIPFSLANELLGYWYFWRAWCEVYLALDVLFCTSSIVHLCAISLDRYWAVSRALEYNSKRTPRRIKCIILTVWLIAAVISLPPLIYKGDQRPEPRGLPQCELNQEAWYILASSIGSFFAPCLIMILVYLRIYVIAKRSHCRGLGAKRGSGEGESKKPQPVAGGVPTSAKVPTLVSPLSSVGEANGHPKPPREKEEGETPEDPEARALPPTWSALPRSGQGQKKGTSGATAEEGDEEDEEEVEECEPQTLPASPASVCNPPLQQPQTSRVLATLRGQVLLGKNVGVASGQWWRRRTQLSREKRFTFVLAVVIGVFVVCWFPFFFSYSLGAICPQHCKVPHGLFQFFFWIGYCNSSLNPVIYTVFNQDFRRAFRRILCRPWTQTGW
T2 sequence (P22909 whole entry): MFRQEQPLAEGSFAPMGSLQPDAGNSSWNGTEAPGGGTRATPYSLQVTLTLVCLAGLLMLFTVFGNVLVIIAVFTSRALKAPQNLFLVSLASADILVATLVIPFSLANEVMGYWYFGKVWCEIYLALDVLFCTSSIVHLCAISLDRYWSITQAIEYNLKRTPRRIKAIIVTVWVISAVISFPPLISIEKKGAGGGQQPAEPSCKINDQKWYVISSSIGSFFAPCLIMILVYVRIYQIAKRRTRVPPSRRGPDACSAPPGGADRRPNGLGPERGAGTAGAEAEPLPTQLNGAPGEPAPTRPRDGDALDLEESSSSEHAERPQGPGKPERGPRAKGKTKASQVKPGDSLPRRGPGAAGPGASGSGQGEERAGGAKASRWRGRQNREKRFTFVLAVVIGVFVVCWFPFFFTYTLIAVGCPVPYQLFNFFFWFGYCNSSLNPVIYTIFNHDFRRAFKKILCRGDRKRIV
Description: Binding affinity against alpha-2 adrenergic receptor in rat cerebral cortical membrane using [3H]yohimbine as radioligand. It is filed as cell membranes.

Molecules are shown by their SMILES.

In assay [1], `Br.CN1CCc2cccc3c2C(CC3)C1` (stereo not given) gave a Ki of 15.8 nM. For the same compound, in assay [2], the “Log Ki” value is listed as -6.6.
With `Br.CN1CCc2c(Cl)ccc3c2C(CC3)C1` (stereo not given), in assay [1], the Ki is 25.1 nM. In addition, the “Log Ki” value in assay [2] is listed as -8.1.
In the same order, the values of `Br.COc1ccc2c3c1CCN(C)CC3CC2` (stereo not given) are 100 nM and -6.9.
In the case of `Br.CN1CCc2c(Cl)ccc3[nH]cc(c23)C1`, the Ki in assay [1] was 31.6 nM. The “Log Ki” value in assay [2] was -6.8.
For `Br.CN1CCc2ccc(Cl)c3c2C(CCCC3)C1` (stereo not given) the same measures were 5010 nM and -6.2.
In the case of `Cl.O=C1CC2(CCCC2)CC(=O)N1CCCCN1CCc2cccc3c2C(CCC3)C1` (stereo not given), the Ki in assay [1] is 39.8 nM. The “Log Ki” value in assay [2] is reported as -5.9.
`Cl.c1ccc(CCN2CCc3cccc4c3C(CCC4)C2)cc1` (stereo not given): the affinity in assay [1], expressed as Ki, was 794 nM. Besides, the “Log Ki” value in assay [2] is reported as -6.2.
`C=CCN1CCc2c(OC)ccc3c2C(CCC3)C1.Cl` (stereo not given) gave a Ki in assay [1] of 12.6 nM. Also, the “Log Ki” value in assay [2] is recorded as -6.
For `CCCN1CCc2cccc3c2C(CCC3)C1.Cl` (stereo not given) the same measures were 50.1 nM and -6.
For `CCN1CCc2cccc3c2C(CCC3)C1.Cl` (stereo not given) the same measures were 50.1 nM and -6.2.
`C=CCOc1ccc2c3c1CCN(C)CC3CCC2.Cl` (stereo not given): the Ki in assay [1] is 631 nM. In addition, the “Log Ki” value in assay [2] is -7.5.
As for `CN1CCc2c(O)ccc3c2C(CCC3)C1.Cl` (stereo not given), the Ki in assay [1] is 316 nM. Moreover, in assay [2], the “Log Ki” value was -6.2.
For `COc1ccc2c3c1CCN(C)CC3CCC2.Cl` (stereo not given) the same measures were 25.1 nM and -6.8.
`COc1ccc2c3c1CN(C)CC3CCC2.Cl` (stereo not given) had a Ki in assay [1] of 200 nM. The “Log Ki” value in assay [2] is on record as -6.8.
Consider `COc1ccc2c3c1CN(C)CCC3CCC2.Cl` (stereo not given), for which the Ki in assay [1] is 6310 nM. Moreover, the “Log Ki” value in assay [2] is -5.9.
In the same order, the values of `CN1CCc2c[nH]c3cccc(c23)C1.Cl` are 1260 nM and -6.
`COc1ccc2c3c1CCN(C)C3CCC2` (stereo not given): the affinity in assay [1] corresponds to a Ki of 3160 nM.
Take `CN1CCc2cccc3c2C(CCC3)C1.Cl` (stereo not given): the Ki in assay [1] is 50.1 nM. Further, the “Log Ki” value in assay [2] is recorded as -5.9.
Take `CN1CCc2cccc3c2[C@H](CCC3)C1.Cl`: the Ki in assay [1] is 31.6 nM. In addition, the “Log Ki” value in assay [2] is reported as -5.6.
As to `O=C1CC2(CCCC2)CC(=O)N1CCCCN1CCc2ccccc2CC1`, the affinity in assay [1], expressed as Ki, was 25.1 nM.
In turn, `CN1CCc2cccc3c2C(CCCC3)C1.Cl` (stereo not given) had a Ki in assay [1] of 398 nM. The “Log Ki” value in assay [2] is recorded as -5.9.
In the same order, the values of `C=CCN1CCc2cccc3c2C(CCC3)C1.Cl` (stereo not given) are 20 nM and -6.1.
For `CN1CCc2cccc3c2[C@@H](CCC3)C1.Cl` the same measures were 63.1 nM and -6.4.
For the compound `Cl.c1cc2c3c(c1)CCNCC3CCC2` (stereo not given), in assay [1], the Ki is 200 nM. Further, in assay [2], the “Log Ki” value was -5.9.
In the same order, the values of `CN1CCc2cccc(Cl)c2CC1` are 100 nM and -8.1.
In the same order, the values of `Br.CN1CCc2cccc3[nH]cc(c23)C1` are 100 nM and -6.3.
For the compound `O=C1CC2(CCCC2)CC(=O)N1CCCCN1CCc2cccc(Cl)c2CC1`, in assay [1], the affinity corresponds to a Ki of 5.01 nM.
`CN1CCc2ccc(Cl)c3c2C(CC3)C1` (stereo not given) had a Ki in assay [1] of 25.1 nM. Moreover, the “Log Ki” value in assay [2] was -6.8.
In the same order, the values of `C=CCN1CCc2c(Cl)ccc3c2C(CCC3)C1` (stereo not given) are 7.94 nM and -6.1.
For `CN1CCc2c(Cl)ccc3c2C(CCCC3)C1` (stereo not given) the same measures were 79.4 nM and -6.5.
In the same order, the values of `CN1CCc2ccc(Cl)c3c2[C@@H](CCC3)C1` are 126 nM and -6.4.
`CN1CCc2c(Cl)ccc3c2[C@@H](CCC3)C1` showed a Ki in assay [1] of 20 nM. For the same compound, the “Log Ki” value in assay [2] is reported as -7.
For `O=C1CC2(CCCC2)CC(=O)N1CCCCN1CCc2c(Cl)ccc3c2C(CCC3)C1` (stereo not given) the same measures were 7.94 nM and -5.5.
In the same order, the values of `CN1CCc2c(Cl)ccc3c2C(CCC3)C1` (stereo not given) are 10 nM and -6.9.
For `CN1CCc2c(Cl)ccc3c2[C@H](CCC3)C1` the same measures were 6.31 nM and -6.6.
The compound `CCN1CCc2c(Cl)ccc3c2C(CCC3)C1` (stereo not given) showed a Ki in assay [1] of 15.8 nM. In addition, the “Log Ki” value in assay [2] was -6.5.
Regarding `CN1CCc2ccc(Cl)c3c2[C@H](CCC3)C1`, in assay [1], the affinity, expressed as Ki, was 50.1 nM. Further, in assay [2], the “Log Ki” value is -5.8.
In the same order, the values of `CCCN1CCc2c(Cl)ccc3c2C(CCC3)C1` (stereo not given) are 31.6 nM and -6.4.
For `CN1CCc2ccc(Cl)c3c2C(CCC3)C1` (stereo not given) the same measures were 79.4 nM and -6.
